In PMC6478823, “A suite of phenotypic assays to ensure pipeline diversity when prioritizing drug-like Cryptosporidium growth inhibitors” (Nature Communications, 2019):

What was measured:
C. parvum = assay: DNA replication assay (EdU incorporation); type: cell-based, Cryptosporidium parvum; conditions: 10 mM, positive control
From the text: Following cell invasion, Cryptosporidium trophozoites grow and multiply to give rise to multinucleated type I meronts (Fig. 3a). The thymidine analog 5-ethynyl-2′-deoxyuridine (EdU) is efficiently incorporated into newly synthesized DNA, and can be detected using click chemistry. We used EdU to measure parasite intracellular DNA replication, as a surrogate for the more complex phenotype of intracellular growth and division. The approach for differentially labeling newly synthesized parasite DNA compared to host cell DNA was to take advantage of the fact that C. parvum replicates more quickly than the nearly confluent host cells. Thus, by adding EdU shortly before egress, it was possible to preferentially label replicating parasites (Fig. 3b, c). DNA staining with Hoechst labeled all of the host and parasite DNA, making it challenging to visualize and quantify parasite DNA. A simple DNA stain would also not distinguish pre-existing DNA from newly synthesized DNA (Fig. 3c). In contrast, EdU labeling only occurred with incorporation into newly synthesized DNA. Incorporated EdU was then easily stained for immunofluorescence and labeled parasites were quantified using high-content microscopy and an NIH ImageJ macro (Fig. 3c, DMSO condition). The […] hydroxyurea (10 mM), a known inhibitor of DNA replication, was used as a positive control for assay validation. […] Compounds with activity in this assay cannot be concluded to specifically target DNA replication, which is a complex phenotype.
Confluent HCT-8 cell monolayers in glass bottom plates were infected with C. parvum, and compounds were added at EC90 following invasion. At 9 h post-infection, 10 µM EdU was added, followed by incubation for another 2 h, and then washing, fixing, and staining for microscopy. […] 40 × dry objective (NA = 0.7); scale = 5 µm. Arrows indicate selected parasites with EdU-labeled DNA. d Quantification of EdU incorporation. […] Data are mean and SD of 2–5 biological replicates.
After incubation of cells with EdU for 2 h, cells were washed 3 times with PBS-D-gal and then fixed with PBS containing 4% PFA. Cells were then permeabilized and stained for EdU using the Click-iT® assay kit (Thermo Fisher Scientific, catalog# C10340) as per the manufacturer’s instructions. Cells were then imaged by focusing on parasites (note that the host cell nuclei are in a different focal plane) using a 40 × dry objective (0.7 NA) and EdU, and lectin numbers quantified using ImageJ software and the custom macro in Supplementary Method 1.

[1] = test system: HCT-8 cell DNA replication; assay: Host cell DNA replication (EdU labeling); type: cell-based, human; conditions: 10 mM, positive control

What does the source list for `NC(=O)NO` [hydroxyurea]?
effect on parasite DNA replication (C. parvum): blocked both parasite and HCT-8 cell DNA replication; effect on HCT-8 cell DNA replication [1]: blocked both parasite and HCT-8 cell DNA replication
